For test [1], the system named is ABUTH. Kind of test: Pre-emergence herbicidal action against ABUTH. Type of test: in vivo, Abutilon theophrasti. The settings on record: Abutilon theophrasti, 504 h. In short, it runs like this:
(§1)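 Pre-emergence soil-surface spray of formulated compound (WP or EC; 600 to 800 l/ha; 0.2% wetting agent) over seeds sown in sandy loam. After 3 weeks under greenhouse conditions, damage is estimated visually in percent against untreated plants.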

The subject of test [2] is ALOMY. Kind of test: Pre-emergence herbicidal action against ALOMY. The settings on record: Alopecurus myosuroides, 504 h, pre-emergence; for pest or weed control at 80 g/ha: scored visually after 3 weeks vs untreated controls (100% = plants have died, 0% = like control plants). It counts as in vivo, Alopecurus myosuroides. In short, it runs like this: as §1
The subject of test [3] is AMARE. Description: Pre-emergence herbicidal action against AMARE. Type of test: in vivo, Amaranthus retroflexus. The settings on record: Amaranthus retroflexus, 504 h, scored visually after 3 weeks vs untreated controls, 100% = plants have died, 0% = like control plants. In short, it runs like this: as §1
Test [4] has as its system AVEFA. Description: Pre-emergence herbicidal action against AVEFA. It counts as in vivo, Avena fatua. To be noted: Avena fatua, 504 h; 80 g/ha, pre-emergence. The procedure, abridged: as §1
The next test has as its system ECHCG. Kind of test: Pre-emergence herbicidal action against ECHCG. Type of test: in vivo, Echinochloa crus-galli. To be noted: Echinochloa crus-galli, 504 h, 80 g/ha. The procedure, abridged: as §1
The test system of the next test is LOLRI. Description: Pre-emergence herbicidal action against LOLRI. To be noted: Lolium rigidum, 504 h, 80 g/ha. Type of test: in vivo, Lolium rigidum. In short, it runs like this:
as §1

The next test concerns MATIN. Description: Pre-emergence herbicidal action against MATIN. Type of test: in vivo, Matricaria inodora. The settings on record: Tripleurospermum inodorum, 504 h; for pest or weed control at 80 g/ha: dosage 80 g/ha. In short, it runs like this: as §1
Test [5] has as its system SETVI. Kind of test: Pre-emergence herbicidal action against SETVI. Type of test: in vivo, Setaria viridis. The settings on record: Setaria viridis, 504 h; for pest or weed control at 80 g/ha: dosage 80 g/ha. The procedure, abridged: as §1
In test [6] the test system is VERPE. Description: Pre-emergence herbicidal action against VERPE. It counts as in vivo, Veronica persica. To be noted: Veronica persica, 504 h; for pest or weed control at 20 g/ha: dosage 20 g/ha; for pest or weed control at 80 g/ha: dosage 80 g/ha. The procedure, abridged: as §1
For another test, the system named is VIOTR. Description: Pre-emergence herbicidal action against VIOTR. Type of test: in vivo, Viola tricolor. The settings on record: Viola tricolor, 504 h, dosage 80 g/ha. In short, it runs like this:
as §1

Test [7] deals with ABUTH. Kind of test: Post-emergence herbicidal action against ABUTH. It counts as in vivo, Abutilon theophrasti. To be noted: Abutilon theophrasti, 504 h, visual assessment about 3 weeks after treatment vs untreated controls; for pest or weed control at 20 g/ha: dosage 20 g/ha. The procedure, abridged: (§2)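 Spray, one-leaf stage: WP or EC compound in water, 600–800 l/ha, 0.2% wetting agent. Plants held about 3 weeks in the greenhouse, then visually rated in percent of kill compared with untreated controls.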

The test system of test [8] is ALOMY. Kind of test: Post-emergence herbicidal action against ALOMY. It counts as in vivo, Alopecurus myosuroides. To be noted: Alopecurus myosuroides, 504 h, dosage 20 g/ha, visual assessment about 3 weeks after treatment vs untreated controls. The procedure, abridged:
as §2

The subject of test [9] is AMARE. Kind of test: Post-emergence herbicidal action against AMARE. Type of test: in vivo, Amaranthus retroflexus. To be noted: Amaranthus retroflexus, 504 h, 20 g/ha, visual assessment about 3 weeks after treatment, 100% = plants have died, 0% = like control plants. The procedure, abridged: as §2
Test [10] has as its system AVEFA. Kind of test: Post-emergence herbicidal action against AVEFA. Type of test: in vivo, Avena fatua. To be noted: Avena fatua, 504 h, 20 g/ha, visual assessment about 3 weeks after treatment, 100% = plants have died, 0% = like control plants. The procedure, abridged:
as §2

The subject of test [11] is SETVI. Kind of test: Post-emergence herbicidal action against SETVI. Type of test: in vivo, Setaria viridis. The settings on record: Setaria viridis, 504 h; for pest or weed control at 5 g/ha: dosage 5 g/ha; for pest or weed control at 20 g/ha: dosage 20 g/ha. The procedure, abridged: as §2
Test [12] deals with VERPE. Description: Post-emergence herbicidal action against VERPE. The settings on record: Veronica persica, 504 h, 20 g/ha. Type of test: in vivo, Veronica persica. The procedure, abridged: as §2

Results on two compounds are retold here after US12655116B2, “Substituted isophthalic acid diamides” (Bayer Aktiengesellschaft, priority 2020, dated 2026).

Take `Cn1nnnc1NC(=O)c1ccc(Br)c(C(=O)NC2CC2)c1Br` [Example 1-344]: the pest or weed control at 80 g/ha with ABUTH [1] (80 g/ha, scored visually after 3 weeks vs untreated controls (100% = plants have died, 0% = like control plants)) was found to be 100%; in the test with ALOMY [2], 100%; with AMARE [3], 100%; in the test on AVEFA [4], 90%; with ECHCG it was 90%; in the test on LOLRI, 90%. In addition, the pest or weed control at 80 g/ha in the test with MATIN is 100%; in the test with SETVI [5], 100%; in the test on VERPE [6], 90%; in the test with VIOTR, 100%. Also, the pest or weed control at 20 g/ha in the test on ABUTH [1] (dosage 20 g/ha, scored visually after 3 weeks vs untreated controls, 100% = plants have died, 0% = like control plants, read-out: Pre-emergence action against ABUTH (herbicidal activity in percent)) amounted to 90%; in the test with ALOMY [2] (20 g/ha, scored visually after 3 weeks, 100% = plants have died, 0% = like control plants), 90%; with AMARE [3], 100%; with MATIN (dosage 20 g/ha), 90%; in the test with VERPE [6] it was 80%; with ABUTH [7] it was 90%. The pest or weed control at 20 g/ha was determined as 100% with ALOMY [8]; 100% with AMARE [9]; 80% in the test on AVEFA [10]; 90% with SETVI [11]; 90% in the test with VERPE [12]. Also, in the test on SETVI [11], the pest or weed control at 5 g/ha was found to be 80%.
In the case of `CNC(=O)c1c(Cl)ccc(C(=O)Nc2nnnn2C)c1Br` [Example 1-349], the pest or weed control at 80 g/ha in the test on ALOMY [2] amounted to 100%; in the test on AMARE [3], 100%; in the test with AVEFA [4] it was 100%; with ECHCG it was 90%; with LOLRI it was 90%; in the test on MATIN, 90%. Further, the pest or weed control at 80 g/ha is 100% with SETVI [5], 90% with VERPE [6] and 100% in the test on VIOTR. Besides, the pest or weed control at 20 g/ha in the test on AMARE [3] turned out to be 100%; in the test with SETVI [5] (dosage 20 g/ha), 90%; with VERPE [6], 90%; in the test with ABUTH [7], 90%; with ALOMY [8], 80%; with AMARE [9] it was 100%. Moreover, the figures for the pest or weed control at 20 g/ha in the test on AVEFA [10], in the test on SETVI [11] and in the test on VERPE [12] were 80%, 90% and 80%, respectively. Also, the pest or weed control at 5 g/ha came to 80% with ABUTH [7] (dosage 5 g/ha) and 90% with SETVI [11].
